Key:
[1] = test system: HPRT1 mRNA in liver tissues; assay: HepG2 orthotopic liver tumor model: HPRT1 mRNA knockdown in liver; format: in vivo, mouse; settings: 5 mg/kg DsiRNA IV, Table 8 formulation, FIG. 14
Text: In order to assess the efficiency of targeting and subsequent functionality of an amino-amine or amino-amide cationic lipid formulation of dsRNA, a second intrahepatic tumor model was utilized. Liver tumors were established in mice by direct intrahepatic injection of HepG2 tumor cells. Female nu/nu mice were used as hosts for the HepG2 tumors. Maintaining the mice under anesthesia using Avertin (Sigma), a single 1-cm incision across the midline was made below the sternum, and the left lateral hepatic lobe is exteriorized. Approximately 3×10^6 HepG2 cells suspended in 60 μL of 50% PBS/50% Matrigel™ (BD) are injected slowly into the lobe at a shallow angle using a Hamilton syringe and a 30-gauge needle. A swab was then applied to the puncture wound to stop any bleeding prior to suturing. Mice were allowed to recover from anesthesia in a sterile cage and monitored closely for 2-4 hours before being returned to conventional housing. About three weeks after tumor implantation, mice were randomized into treatment groups. […] The dose was calculated based on mg of dsRNAs/kg of body weight basis according to individual animal weights. […] Body weights were monitored throughout the duration of the study as an indicator of developing tumor burden and treatment tolerability. For efficacy studies, defined humane end points were determined as a surrogate for survival. […]

[2] = TNS fluorescence method, apparent pKa of lipid in formulation; format: physicochemical; settings: apparent pKa of the formulation, pH at half-maximal TNS fluorescence
Text: The TNS fluorescence method may be used to determine the apparent pKa of the lipid in the formulation. TNS (2-(p-toluidino)-6-naphthalene sulfonic acid) is a negatively charged fluorescent dye whose fluorescence is quenched in the presence of water. […] The increase in the fluorescence can thus be used to estimate the ionization of a cationic lipid when present in different pH environment. Methods of determining pKa using TNS are known in the art, e.g., as described in the Examples.
To determine pKa values of the cationic lipids of the invention, formulations (concentration of 1 mM) were incubated in phosphate buffer at different pH values, to which TNS dissolved in DMSO was added (resulting final concentration of 6 μM TNS). Fluorescence of the resulting solution was measured on a SpectraMax® M3 fluorescence plate reader with excitation wavelength of 325 nm and emission wavelength of 435 nm. The measured fluorescence of TNS was fitted with a three-parameter sigmoidal function shown in equation 1.
The pH at which half of the maximum fluorescence was reached was reported as the apparent pKa of the formulation, where a and b are dimensionless parameters reflecting the maximum observed fluorescence and slope of the sigmoidal function, respectively.

[3] = Tolerability of lipid formulations in CD-1 mice (serum clinical chemistry, body weight, liver); format: in vivo, mouse; settings: female CD-1 mice, 2 doses (qod) 10 mg/kg DsiRNA
Protocol: In order to assess the tolerability of a lipid formulation containing an amino-amine or amino-amide cationic lipid of the invention and a dsRNA, female CD-1 mice were injected with L-6 and L-30 formulations [administered in 2 doses (qod) at 10 mg/kg DsiRNA dose, about 200 mg/kg total lipid dose each] and serum samples were collected 48 hours after the second dose. Serum samples were tested for a panel of clinical chemistry assessments, including liver function tests (LFTs) via measurement of enzymes alanine transaminase (ALT) and aspartate transaminase (AST). Phosphate buffered saline (PBS) was used as vehicle control group. ALT and AST elevation was <3x of PBS group for formulations L-6 and L-30. There were also no changes in body weight or liver observed for L-6 and L-30 formulations. Thus, L-6 and L-30 formulations were well-tolerated. Thus, any of the lipids described herein, and formulations thereof, would be useful for the delivery of one or more agent, e.g., polyanionic or antisense payloads.

Hep3B tumor = assay: Hepatocellular carcinoma anti-tumor efficacy, orthotopic Hep3B model (serum AFP, tumor weight); format: in vivo, mouse; settings: 5 mg/kg active DsiRNA IV, vs control payload and PBS; for reducing serum AFP: FIG. 15; for reducing tumor weight: FIG. 16
Text: Liver tumors were established in mice by direct intrahepatic injection of Hep3B tumor cells as described in Example 10. About two weeks after tumor implantation, mice were randomized into treatment groups. Mice (n=6 per group) received: either (1) the amino-amine or amino-amide lipid formulation of a control dsRNA; (2) the amino-amine or amino-amide lipid formulation of an active dsRNA; or (3) vehicle control, as administered by standard intravenous (i.v.) injection via the lateral tail vein. The dose was calculated based on mg of dsRNAs/kg of body weight basis according to individual animal weights. In the experiments that generated the results shown in FIGS. 15 and 16, animals were dosed at 5 mg/kg DsiRNA with L-6- or L-30-formulated lipid particles. Table 8 above presents specific compositions of lipid formulations comprising the L-6 and L-30 lipids used in the instant studies.
Body weights were monitored throughout the duration of the study as an indicator of developing tumor burden and treatment tolerability. For efficacy studies, defined humane end points were determined as a surrogate for survival. Assessments were made based on a combination of clinical signs, weight loss, and abdominal distension to define the day of euthanization due to tumor burden. Tumor tissues were removed from the animals of different treatment groups and tumor weights were measured to determine efficacy of different treatment groups. Serum α-fetoprotein (AFP) levels were also measured as a biomarker for tumor burden.

[4] = test system: HPRT1 mRNA in mouse liver; assay: In vivo knockdown of HPRT1 mRNA in mouse liver, lipid particles with DsiRNA; settings: CD1 mice; for % mRNA Knockdown: single IV dose 5 mg/kg, HPRT1 DsiRNA; for % mRNA Knockdown / mrna remaining at 5 mg/kg: 48 hours; for gene silencing at the lower dose: single dose 1 mg/kg, FIG. 12; for mrna remaining at 5 mg/kg: Mus musculus, single dose 5 mg/kg, FIG. 11, read-out: remaining mRNA levels
Protocol: Formulations were prepared with the following approximate percentages: 20 mol % of one of either L-1, L-2, L-5, L-6, L-7, L-8, L-22, or L-30; 26 mol % of DODMA; 3 mol % of PEG2000-DMPE; 3 mol % of PEG2000-DMG; 13 mol % of DSPC; and 33 mol % of cholesterol. The formulation further included a DsiRNA:total lipid ratio of about 1:20 (w/w).
Approximately 4-week old CD1 female mice were administered a single dose (either 1 mg/kg or 5 mg/kg) of the lipid particle formulation with a dosing volume of 10 μL/g of body weight by intravenous administration via a tail vein. After 48 hours (post-dosing), tissues were collected in RNALater (Qiagen). In the end point analysis, the total RNA was isolated from the mouse liver for RT-qPCR. The RNA sample was heated at 70° C., for 5 minutes with Oligo(dT) primers before RT. In the PCR reaction, mHPRT expression was normalized with RPL23 (a housekeeping gene, used as a control herein). FIGS. 11 and 12 show data with error bars with mean±SD for n=5 animals/group.

| SMILES | delivery of anti-HPRT1 DsiRNA payload to liver tissues [1] | pKa [2] | changes in body weight or liver [3] | tolerability [3] | reducing serum AFP (Hep3B tumor) | reducing tumor weight (Hep3B tumor) | % mRNA Knockdown [4] [%] | gene silencing at the lower dose [4] | mrna remaining at 5 mg/kg [4] [%] |
| --- | --- | --- | --- | --- | --- | --- | --- | --- | --- |
| CCCCC/C=C\C/C=C\CCCCCCCCC(CCCCCCCC/C=C\C/C=C\CCCCC)N1CCN(C)CC1 [Compound L-6] | remarkably effective | 5.6 | no changes | well-tolerated | remarkably effective | remarkably effective | 88.2 | effective gene silencing | 15 to 45 |
| CCCCC/C=C\C/C=C\CCCCCCCCC(CCCCCCCC/C=C\C/C=C\CCCCC)NC(=O)CN(C)C [Compound L-30] | remarkably effective | 5.8 | no changes | well-tolerated | remarkably effective | remarkably effective | 86.4 | effective gene silencing | ~15 |

— US11059807B2, “Amine cationic lipids and uses thereof” (Dicerna Pharmaceuticals, Inc., priority 2011, dated 2021)
